In US12428400B2 (priority 2020, dated 2025):
Read-outs that look alike come from different tables or passages of the source.

Tested on: pathogens of rice blast
Type: cell-based
Conditions: 25° C., 7 days, elongation length of hyphae

Compound: COc1nc2nc3ccccc3n2c(F)c1C(F)(F)F [Example 4, 4-fluoro-2-methoxy-3-(trifluoromethyl)benzo[4,5]imidazo[1,2-a]pyrimidine]
- Control value (test solution 1000 ppm, 1,000 μl on oatmeal culture medium): 66
- Control value (test solution 2000 ppm, 1,000 μl on oatmeal culture medium): 96
